Source: patent US10040822B2, “Neuroprotective composition and method of use” (Brown University, priority 2012, dated 2018)
Where no end group is shown, it is not given here.

Legend:
[1] = tested on: HEK293 cells; experiment: Cultured HEK293 cells pretreated with peptide, chemically induced excitotoxic challenge, mitochondrial readouts; type: cell-based; settings: for oxidative stress following excitotoxic challenge / stress-induced hyperpolarization of the mitochondrial membrane potentials: HEK293 cells pretreated with peptide, compared with sham-treated controls; for mitochondrial oxidative stress: further studies by the applicant's group, system not given
[2] = tested on: NMDA-insult to the retina; experiment: In vivo rat retinal toxicity model of NMDA-induced chemical stroke; settings: for long-term protection against NMDA-induced retinal ganglion cell death: 14-21 day post-insult, single dosing; for long-term protection against NMDA-induced retinal ganglion cell death / NMDA-induced loss of plasma membrane selectivity in NMDA-receptive neurons / NMDA-induced caspase activation / NMDA-induced mitochondrial-induced oxidative stress in the retina / NMDA-induced poly-(ADP)ribosylolation / short-term protection against NMDA-insult: rat retina; for short-term neuronal cell death signaling: compound administered simultaneously with NMDA-induced chemical stroke; for NMDA-induced loss of plasma membrane selectivity in NMDA-receptive neurons: out to 8 hrs post-insult, compound given simultaneously with NMDA; for NMDA-induced caspase activation / NMDA-induced mitochondrial-induced oxidative stress in the retina / NMDA-induced poly-(ADP)ribosylolation: short-term, 2-4 hrs post-NMDA-insult
Source text: 7. Blockade of PARP activity attenuates poly(ADP-ribosyl)ation but offers only partial neuroprotection against NMDA-induced cell death in the rat retina. (Goebel and Winkler, J Neuro Chem, 98:1732-1745, 2006) (NMDA-induced chemical stroke in vivo rat retinal neurotoxicity model).
In a test model, the retina was protected from NMDA-induced chemical stroke. […] The compositions of this invention are useful in a variety of clinical situations, most of which are characterized by neurological insult or cellular insult typified by mitochondrial damage. Without being bound by any particular theory, untreated mitochondrial damage is believed to lead to generation of free radical species. The compositions of this invention appear to avert or curtail oxidative stress in the retina following NMDA-insult by reducing mitochondrial originated free radical generation. Without being bound by any particular theory, such activity is believed to be significant in neuroprotection arising from the compositions of this invention.
Data establish that the compounds of the present invention protect the neural tissue (retina) against a strong NMDA-insult, with particular reference to R(7) (SEQ ID NO: 5), CR(7) (SEQ ID NO: 8) and C-s-s-CR(7) (“CR(7)” disclosed as SEQ ID NO: 8).

[3] = tested on: glaucoma; experiment: Glaucoma patient treated with CR(7) eye drops (Example 9); type: in vivo, human; settings: Example 9, glaucoma patient, eye drops 1.25 μg per 20 μl drop, two drops morning and night, chronic
Method: A person presents with a complaint of blurry vision in their left eye for 1 week. Their IOP is above 21 mmHg. A diagnosis of glaucoma is made.
Effort is made to surgically reduce IOP. In post-surgical monitoring, IOP levels remain above normal excepted levels. To prevent retinal damage resulting from the prolonged exposure to elevated IOP. the patient is administered CR(7) (SEQ ID NO: 8) in the form of eye drops suspended in a corneal penetrating lipophilic suspension. Each 20 μl drop contains 1.25 μg of CR(7) (SEQ ID NO: 8) The total applied/treatment is 2.5 μg. Two drops are administered morning and two drops at night

[4] = tested on: retinal neurons; experiment: Uptake of fluorescent-tagged peptides into retinal neurons after injection into the vitreal chamber; type: in vivo; settings: intravitreal, rat
Method: Attention is drawn to the uptake into brain tissues under in vivo conditions Fluorescent-tagged R(7) (SEQ ID NO: 5) and C-s-s-CR(7) (“CR(7)” disclosed as SEQ ID NO: 8) were injected into the vitreal chamber of a rat eyes and analyzed for specific uptake into retinal neurons at multiple time points post-injection. […] At longer time points (2-4 hrs post injection) the accumulation of the labeled peptides accumulated within the cytoplasm of the majority of neurons in the inner half of the retina with preferential accumulations being localized to small membrane-bound organelles surrounding the nucleus of both ganglion cells and amacrine cells as well as in exiting ganglion cell axons.

[5] = tested on: stroke; experiment: Stroke patient treated i.v. with polyarginine (Examples 1, 2); type: in vivo, human
Method: A person enters the emergency room and is diagnosed with an ischemic event involving the middle cerebral artery, with symptomatology onset being under 1 hr. Immediately, the patient was administered an i.v. supplemented with poly-arginine (R(7)C-s-s-C (“R(7)C” disclosed as SEQ ID NO: 12), 5 mg/kg) while blood supply to the restricted area is restored.
A person is revived following stoke in their home by EMS and is rushed to the nearest hospital 80 miles away. Upon arriving at the hospital it is determined that the patient is showing signs of weakness on their left side. […] They are immediately started an i.v. and administered poly arginine (R(7) (SEQ ID NO: 5))@ 4 mg/kg/hr over a period of 5 days to arrest post-stroke neuronal damage. The patient is monitored for recovery signs.

[6] = tested on: spinal cord injury; experiment: Spinal cord injury patient treated i.v. with polyarginine (Example 8); type: in vivo, human; settings: Example 8, spinal cord injury patient, i.v. 0.15 mg/kg every other day for 30 days
Method: A person presents with a spinal cord injury following an automobile accident. The subject is conscious but unable to move their legs. […] A Th(11)-L(2) laminectomy is performed along with retrieval of foreign bodies and dura repair. Upon admission the patient is administered an i.v. containing R(7)C-s-s-C (“R(7)C” disclosed as SEQ ID NO: 12) peptide at 0.15 mg/kg.

[7] = tested on: Traumatic Brain Injury; experiment: TBI patient treated i.v. with polyarginine (Example 3); type: in vivo, human; settings: Example 3, severe concussion patient, i.v. 0.05 mg/kg, 3-5 days
Method: A high school football player is rushed to the emergency room of a local hospital suffering from a severe concussion following a helmet to helmet impact with an opposing player. The patient is initially unconscious on the field for over 20 min. EMS personnel arrived to find the patient responding to stimuli, but completely disoriented and unable to coordinate muscle movement, articulate speech or focus eye movements. Upon arriving at the ER, the patient is administered an i.v. containing R(7)C-s-s-C (“R(7)C” disclosed as SEQ ID NO: 12) peptide at 0.05 mg/kg. Delivery of the peptide continued until brain swelling resulting from the impact returns to normal state (3-5 days). Without being bound by any particular theory, the therapeutic is to arrest neuronal cell death resulting from these documented post-traumatic effects.

[8] = tested on: neurons in the spinal cord and in the brain; experiment: Intrathecal and intraventricular injection of fluorescent-tagged peptides, distribution in spinal cord and brain; type: in vivo; settings: fluorescent-tagged peptide
Source text: Testing addressed intrathecal and intraventricular injection of fluorescent-tagged R(7) (SEQ ID NO: 5) and C-s-s-C-R(7) (“C-R(7)” disclosed as SEQ ID NO: 8). […] This approach is a workable option for quick delivery to prevent both stroke or traumatic injury to these tissues.

[9] = Example 2, post-stroke patient, i.v. 4 mg/kg/hr over 5 days, observed over the next 30 days

| Molecule | oxidative stress following excitotoxic challenge [1] | stress-induced hyperpolarization of the mitochondrial membrane potentials [1] | mitochondrial oxidative stress [1] | long-term protection against NMDA-induced retinal ganglion cell death [2] | short-term neuronal cell death signaling [2] | NMDA-induced loss of plasma membrane selectivity in NMDA-receptive neurons [2] | NMDA-induced caspase activation [2] | NMDA-induced mitochondrial-induced oxidative stress in the retina [2] | NMDA-induced poly-(ADP)ribosylolation [2] | short-term protection against NMDA-insult [2] | also measured |
| --- | --- | --- | --- | --- | --- | --- | --- | --- | --- | --- | --- |
| N=C(N)NCCCC(NC(=O)[C@H](CCCNC(=N)N)NC(=O)C(N)CSSC[C@H](N)C(=O)O)C(=O)N[C@@H](CCCNC(=N)N)C(=O)NC(CCCNC(=N)N)C(=O)N[C@@H](CCCNC(=N)N)C(=O)NC(CCCNC(=N)N)C(=O)N[C@@H](CCCNC(=N)N)C(N)=O (stereo partly shown) [C-s-s-CR(7), C-s-s-C-R-R-R-R-R-R-R] | significant attenuation | significant attenuation | significantly prevented | not significantly different from results obtained from untreated or sham-treated control retinas | block | blocked | fully block | fully block | fully block |  |  |
| C-R-R-R-R-R-R-R (CRRRRRRR) [CR(7)] | significant attenuation | significant attenuation | significantly prevented | not significantly different from results obtained from untreated or sham-treated control retinas | block | blocked | fully block | fully block | fully block |  | progression of neuronal cell death [3]: no progression of neuronal cell death is detected; neuroprotection ([2]; general statement, retina, NMDA-insult): effective when the peptide is made with either l- or d-amino acids |
| Fluorescent-tagged R(7): Fluorescent-tagged R(7) (SEQ ID NO: 5) (RRRRRRR; also: fluorescent tag, position not given here) |  |  |  |  |  |  |  |  |  |  | accumulation in retinal neurons and glia cells of ganglion and inner nuclear layers ([4]; fluorescent-tagged peptide, 30 min following injection): significant accumulations; subcellular localisation of labeled peptide (double labeling) ([4]; 2-4 hrs post injection): majority of these labeled puncta colocalize with mitochondrial-specific markers |
| R(7)-C: 7 arginine peptide with C-terminus cysteine (SEQ ID NO: 12) (RRRRRRRC; MOD_RES (1)..(7) Residues may be D or L configuration) |  |  |  | both short and long-term protection |  |  |  |  |  | both short and long-term protection |  |
| R(7)C-s-s-C: R(7)C (SEQ ID NO: 12) with second cysteine linked by disulfide to the terminal cysteine (RRRRRRRC(Cys); also: extra cysteine disulfide-linked to Cys8) |  |  |  |  |  |  |  |  |  |  | CT/MRI imaging of the affected region ([5]; Example 1, ischemic stroke patient, i.v. 5 mg/kg): no signs of lesioning in the affected region; daily testing of cognitive and motor systems ([5]; Example 1, ischemic stroke patient, i.v. 5 mg/kg, onset under 1 hr): no deficits in physical or mental capacities; recovery of leg movement [6]: substantial ability to move their legs is returned; TBI and post-concussion symptoms [7]: remains symptom free of TBI and post-concussion effects |
| RRRRRRR [R(7)] | significant attenuation | significant attenuation | significantly prevented | less effective | block | blocked | fully block | fully block | fully block | full short-term protection | muscle tone and limb recovery [5, 9]: increased muscle tone on the left side; speech pattern recovery [5, 9]: Improvement in their speech pattern |
| d-C-s-s-dCdR(7): d-isomer of C-s-s-CR(7) (CRRRRRRR; D-amino acids, disulfide-linked; MOD_RES (1)..(7) Residues are D configuration) |  |  |  | full short- and long-term neuroprotection |  |  |  |  |  | full short- and long-term neuroprotection |  |
| d-CdR(7): d-isomer of CR(7) (SEQ ID NO: 13) (CRRRRRRR; D-amino acids; MOD_RES (1)..(7) Residues are D configuration) |  |  |  | full short- and long-term neuroprotection |  |  |  |  |  | full short- and long-term neuroprotection |  |
| fluorescent-tagged CR(7): fluorescent-tagged CR(7) (SEQ ID NO: 8) (CRRRRRRR; also: fluorescent tag, position not given here) |  |  |  |  |  |  |  |  |  |  | accumulation in neurons of spinal cord and brain [8]: Preferential accumulation was noted in the neurons located within the hippocampus and cerebral cortex; crossing of the pia matter glial barrier [8]: readily crosses the pia matter glial barrier |
